Laboratory results reported in patent publication US20230373972A1, “PIPERAZINE DERIVATIVE, PREPARATION METHOD THEREFOR AND USE THEREOF” (Zhejiang Hisun Pharmaceutical Co., Ltd., priority 2020, published 2023).
Like-named read-outs stand apart in the source and are kept apart here.

Experiments:
[1] = molecular target: T1, Native human Factor XIa protease (Homo sapiens, UniProt P03951); experiment: Inhibition of activity of Factor XIa protease (chromogenic substrate S-2366); assay type: biochemical; settings: S-2366 1 mM, 37° C. 10 minutes, absorption at 405 nm
T1 construct: The Native human Factor XIa protease was purchased from Abcam; purchased Abcam ab62411
Outline: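 Native human Factor XIa (final […]) in 100 mM Tris-HCl, 200 mM NaCl, 0.02% Tween 20, pH 7.4, preincubated with compound 5 min on ice; 1 mM S-2366 added, 10 min at 37° C. Absorbance at 405 nm versus 0.1% DMSO control; IC50 by nonlinear regression, compound 10,000 nM to […] final.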

[2] = Pharmacokinetics in SD rat; assay type: in vivo; settings: male, plasma; for AUC(0-t): read-out: Curve area AUC0-t; for half-life: read-out: Half-life period T1/2(h) (converted)
Protocol: Taking a SD rat as a test animal, the SD rat was administrated with the compound of the present invention by intravenous injection and/or intragastric administration, and drug concentrations in plasma at different times were determined by a IC/MS/MS method to study pharmacokinetic characteristics of the compound of the present invention in the SD rat.
SD rats, male, 195 g to 235 g, 6 weeks old to 8 weeks old, purchased from Shanghai JieSiJie Laboratory Animal Co., Ltd.
Preparation of drug administrated by intravenous injection: a proper amount of compound to be tested was added to a proper amount of DMAC; (30% Soltol HS 15): Saline=10%: 10%: 80% (v/v/v), and shaken in a vortex manner, so as to prepare a final solution with a concentration of 0.5 mg/mL.
Preparation of drug administrated by intragastric administration: a proper amount of compound to be tested was added to a proper amount of DMAC: (30% Soltol HS 15): Saline=10%: 10%: 80% (v/v/v), and shaken in a vortex manner, so as to prepare a final solution with a concentration of 1 mg/mL.
SD rats were divided into an intravenous injection group of the compound to be tested (3 rats/group) and an intragastric administration group (3 rats/group) of the compound to be tested.
Intravenous injection group: the drug was administrated by dorsalis pedis vein injection (according to a dosage of 1 mg/kg and a volume of 2 mL/kg) without fasting.
Intragastric administration group: the drug was administrated by intragastric administration (according to a dosage of 10 mg/kg and a volume of 10 mL/kg) after fasting overnight, and food was taken 4 hours after administration.
Intravenous injection group: about 150 μL of blood was collected into an EDTA-K2 anticoagulant tube through a jugular vein 0.083 hour, 0.25 hour, 0.5 hour, 1 hour, 2 hours, 4 hours, 8 hours and 24 hours after administration.
Intragastric administration group; about 150 μL of blood was collected into an EDTA-K2 anticoagulant tube through a jugular vein 0.25 how, 0.5 hour, 1 hour, 2 hours, 4 hours, 8 hours and 24 hours after administration.
The blood sample was stored in wet ice first, and plasma was centrifugally separated within 15 minutes after sampling (centrifugation conditions: 2,000 g, 4° C., 5 minutes). The collected upper plasma was stored at −70° C. before analysis.
Contents of the compound to be tested in rat plasma after intravenous injection and intragastric administration were determined by LC-MS/MS.

[3] = iv, injection administration 1 mg/kg
[4] = po, intragastric administration 10 mg/kg

T1 sequence (P03951 388-625 limits assumed): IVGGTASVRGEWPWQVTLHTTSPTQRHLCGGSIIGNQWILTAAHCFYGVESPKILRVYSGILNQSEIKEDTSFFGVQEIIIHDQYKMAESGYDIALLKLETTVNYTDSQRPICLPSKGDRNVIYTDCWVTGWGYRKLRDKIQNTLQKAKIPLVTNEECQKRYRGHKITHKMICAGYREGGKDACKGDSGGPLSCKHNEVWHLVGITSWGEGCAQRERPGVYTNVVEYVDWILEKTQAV
T1 sequence (P03951 19-387 partner limits assumed): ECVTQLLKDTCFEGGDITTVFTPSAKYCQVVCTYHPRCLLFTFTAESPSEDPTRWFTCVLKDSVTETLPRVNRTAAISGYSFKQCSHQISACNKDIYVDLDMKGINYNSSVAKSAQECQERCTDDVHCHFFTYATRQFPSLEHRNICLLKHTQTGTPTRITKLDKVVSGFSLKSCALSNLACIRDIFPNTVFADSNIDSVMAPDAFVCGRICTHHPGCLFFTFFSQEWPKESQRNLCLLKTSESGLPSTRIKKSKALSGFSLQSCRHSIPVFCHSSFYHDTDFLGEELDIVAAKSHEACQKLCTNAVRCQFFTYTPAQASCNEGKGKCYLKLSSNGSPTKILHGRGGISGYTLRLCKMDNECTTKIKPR

Compound: COCC[C@@H](C(=O)Nc1ccc2nn(C)cc2c1)N1CC(=O)N(c2cc(Cl)ccc2-n2cc(Cl)nn2)CC1=O [Example 96, (S)-2-(4-(5-chloro-2-(4-chloro-1H-1,2,3-triazol-1-yl)phenyl)-2,5-dioxopiperazin-1-yl)-4-methoxy-N-(2-methyl-2H-indazol-5-yl)butanamide]
- IC50 [1]: 42.8 nM
- AUC(0-t) [2, 3]: 532 ± 87.8 ng·h/mL
- half-life [2, 3]: 0.942 ± 0.078 h
- bioavailability ([2]; po, intragastric 10 mg/kg vs injection 1 mg/kg, read-out: Bioavailability F(%)): 72.5 ± 13.7%
- Cmax ([2]; po, intragastric administration 10 mg/kg, read-out: Blood concentration Cmax): 1790 ± 510 ng/mL
- AUC(0-t) [2, 4]: 3860 ± 728 ng·h/mL
- half-life [2, 4]: 1.54 ± 0.784 h
